According to patent EP1366765A1, “Use of matrix metalloproteinase inhibitors for treating neurological disorders and promoting wound healing” (priority 1996, dated 1998):
Structures can show the parent of a compound that is named as a salt. Where a SMILES comes first, the peptide text is derived from it. The star is where a group is joined. Hydrocinnamoyl = O=C(CCc1ccccc1)*; Tfa = O=C(C(F)(F)F)*

Assays:
MMP-1 = molecular target: T1, MMP-1 (Homo sapiens, UniProt P03956); settings: cited from earlier work; for IC50: IA = inactive
T1 sequence (P03956 100-469): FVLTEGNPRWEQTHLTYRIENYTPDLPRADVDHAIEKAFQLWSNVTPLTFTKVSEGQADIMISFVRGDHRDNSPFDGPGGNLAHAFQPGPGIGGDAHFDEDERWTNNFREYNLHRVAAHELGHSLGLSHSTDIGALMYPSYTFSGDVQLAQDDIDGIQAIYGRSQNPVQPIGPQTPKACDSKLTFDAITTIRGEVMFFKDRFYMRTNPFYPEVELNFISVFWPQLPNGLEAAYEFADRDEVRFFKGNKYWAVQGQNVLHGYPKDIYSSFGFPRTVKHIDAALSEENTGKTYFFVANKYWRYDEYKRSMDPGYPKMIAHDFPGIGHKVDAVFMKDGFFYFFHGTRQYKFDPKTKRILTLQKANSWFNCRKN

MMP-8 = MMP-8 (Homo sapiens, UniProt P22894); settings: cited from earlier work
MMP-3 = MMP-3 (Homo sapiens, UniProt P08254); settings: cited from earlier work
MMP-2 [1] = system: MMP-2
MMP-13 = MMP-13 (Homo sapiens, UniProt P45452); settings: cited from earlier work
MMP-9 = MMP-9 (Homo sapiens, UniProt P14780); settings: cited from earlier work
MMP-2 [2] = settings: cited from earlier work
stromelysin = settings: dosed orally at 30 mg/kg in rabbits injected with stromelysin; cited from earlier work
[3] = cited from earlier work; for activity in the guinea pig model of osteoarthritis (in words): in vivo; for inhibiting femoral lesions: guinea pig model of osteoarthritis
[4] = in vivo; cited from earlier work
[5] = in vivo; cited from earlier work; remark: listed apart in the source
MMPs = settings: cited from earlier work
[6] = from MBP-sensitized splenocytes; cited from earlier work

Sequence of MMP-8 (P22894 101-467, species assumed): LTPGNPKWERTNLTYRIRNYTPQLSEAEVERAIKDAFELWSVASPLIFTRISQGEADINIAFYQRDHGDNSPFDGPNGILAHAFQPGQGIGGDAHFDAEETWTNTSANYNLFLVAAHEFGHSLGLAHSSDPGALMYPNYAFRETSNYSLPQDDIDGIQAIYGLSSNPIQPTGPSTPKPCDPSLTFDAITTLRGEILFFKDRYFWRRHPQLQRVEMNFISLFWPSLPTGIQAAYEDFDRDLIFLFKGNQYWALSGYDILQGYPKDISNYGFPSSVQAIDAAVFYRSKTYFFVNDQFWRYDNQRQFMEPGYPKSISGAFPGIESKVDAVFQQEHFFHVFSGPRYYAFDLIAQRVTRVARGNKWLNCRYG
Sequence of MMP-3 (P08254 100-477, species assumed): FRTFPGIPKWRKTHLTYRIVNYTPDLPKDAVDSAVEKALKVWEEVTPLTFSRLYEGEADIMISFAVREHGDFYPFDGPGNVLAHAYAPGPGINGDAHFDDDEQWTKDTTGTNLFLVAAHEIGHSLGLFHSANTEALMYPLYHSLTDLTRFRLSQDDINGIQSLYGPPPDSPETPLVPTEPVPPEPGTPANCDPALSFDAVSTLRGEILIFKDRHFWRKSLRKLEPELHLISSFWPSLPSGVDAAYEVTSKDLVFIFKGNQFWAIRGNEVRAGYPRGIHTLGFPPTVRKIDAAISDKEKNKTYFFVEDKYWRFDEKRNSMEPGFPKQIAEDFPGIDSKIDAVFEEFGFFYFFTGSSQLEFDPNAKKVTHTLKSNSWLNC
Sequence of MMP-9 (P14780 94-707, species assumed): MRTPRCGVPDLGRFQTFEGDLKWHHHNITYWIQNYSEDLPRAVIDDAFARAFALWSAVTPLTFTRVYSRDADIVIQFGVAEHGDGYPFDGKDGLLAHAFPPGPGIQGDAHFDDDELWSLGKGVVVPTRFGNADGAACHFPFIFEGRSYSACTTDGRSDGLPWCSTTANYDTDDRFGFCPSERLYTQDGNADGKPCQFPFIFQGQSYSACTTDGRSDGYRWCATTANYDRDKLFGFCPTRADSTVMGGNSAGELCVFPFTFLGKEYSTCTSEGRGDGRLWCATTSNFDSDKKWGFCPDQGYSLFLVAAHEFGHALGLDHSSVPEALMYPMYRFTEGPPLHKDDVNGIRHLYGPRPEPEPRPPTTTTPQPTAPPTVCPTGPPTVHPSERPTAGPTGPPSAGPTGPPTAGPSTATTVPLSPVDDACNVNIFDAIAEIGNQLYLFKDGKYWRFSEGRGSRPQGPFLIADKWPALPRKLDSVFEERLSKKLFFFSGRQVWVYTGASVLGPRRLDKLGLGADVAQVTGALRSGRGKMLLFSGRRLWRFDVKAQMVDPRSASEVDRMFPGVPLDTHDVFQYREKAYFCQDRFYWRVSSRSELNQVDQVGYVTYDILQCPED

## CNC(=O)[C@H](Cc1ccccc1)NC(=O)[C@H](CCCCO)CC(=O)NO [Compound 5]
MMP-1
  IC50: 64 nM
MMP-8
  IC50: 7 nM

## CCCNC(=O)CCC[C@H](CC(=O)NO)C(=O)N[C@@H](Cc1ccccc1)C(=O)NC [Compound 6]
MMP-1
  IC50: 5100 nM
MMP-8
  IC50: 2 nM

## CNC(=O)[C@H](Cc1ccccc1)NC(=O)[C@H](CCCC(=O)NCCc1ccccc1)CC(=O)NO [Compound 7]
MMP-1
  IC50: 1300 nM
MMP-8
  IC50: 32 nM

## CNC(=O)[C@H](Cc1ccccc1)NC(=O)[C@H](CCCOCc1ccccc1)CC(=O)NO [Compound 8]
MMP-1
  IC50: 2270 nM

## CCCCCCCCCCCC[C@H](CC(=O)O)C(=O)N[C@@H](Cc1ccccc1)C(=O)NC [Compound 11]
MMP-1; @ 100 µM
  MMP-1 % @ 100 µM: 30% @ 100 µM

## O=C(C[C@@H](CCCc1ccccc1)C(=O)N[C@@H](CC1CCCCC1)C(=O)NCCc1ccccc1)NO [Compound 17]
MMP-3
  IC50: 8.3 nM
MMP-2 [1]
  selectivity for MMP-2 over MMP-1: 10,000 fold
  selectivity for MMP-2 over MMP-3: 100 fold
MMP-1
  IC50: 203 nM

## O=C(C[C@@H](CCCc1ccc(Cl)cc1)C(=O)N[C@@H](CC1CCCCC1)C(=O)NCCNS(=O)(=O)N1CCOCC1)NO [Compound 18]
MMP-13
  inhibition of MMP-13 (in words): potently inhibits
MMP-1
  IC50: 385 nM
MMP-9
  IC50: 0.016 nM
MMP-2 [2]
  IC50: < 0.01 nM

## Cc1ccc(CCC[C@H](CC(=O)O)C(=O)N[C@@H](CC2CCCCC2)C(=O)NCCc2ccccc2)cc1 [Compound 19]
MMP-3
  IC50: 470 nM
MMP-1
  IC50: 22000 nM
MMP-2 [2]
  IC50: 1 nM

## CCCCCCCCC(NC(C)C(=O)O)C(=O)NC(CC(C)C)C(=O)Nc1ccccc1 (stereo not drawn) [Compound 24]
MMP-3
  IC50: 570 nM
MMP-1
  IC50: > 10000 nM
MMP-2 [2]
  IC50: 340 nM

## CC(C)CC(NC(=O)C(CCc1ccccc1)NC(CCCCN1C(=O)c2ccccc2C1=O)C(=O)O)C(=O)Nc1ccccc1 (stereo not drawn) [Compound 27]
MMP-3
  IC50: 8 nM
MMP-1
  IC50: 720 nM
MMP-2 [2]
  IC50: 86 nM

## CNC(=O)[C@H](Cc1ccccc1)NC(=O)[C@H](CC(C)C)N[C@@H](CCN1C(=O)c2cc3ccccc3cc2C1=O)C(=O)O [Compound 28]
MMP-3
  IC50: 91 nM
MMP-1
  IC50: 20 nM
MMP-9
  IC50: 5 nM

## CNC(=O)[C@H](Cc1ccccc1)NC(=O)[C@H](CC(C)C)N[C@@H](CCN1C(=O)c2cc3ccccc3c(OC)c2C1=O)C(=O)O [Compound 29]
MMP-3
  IC50: 1400 nM
MMP-1
  IC50: 54 nM
MMP-9
  IC50: 7 nM

## CC(C)CC(NC(CCN1C(=O)c2cc3ccccc3cc2C1=O)C(=O)O)C(=O)NCCc1ccccc1 (stereo not drawn) [Compound 30]
MMP-1
  IC50: 160 nM
MMP-9
  IC50: 35 nM
MMP-2 [2]
  IC50: > 10000 nM

## CC(C)C[C@H](N[C@@H](CCN1C(=O)c2cc3ccccc3cc2C1=O)C(=O)O)C(=O)NCc1ccc(C(=O)O)cc1 [Compound 31]
MMP-1
  IC50: 56 nM
MMP-9
  IC50: 74 nM
MMP-2 [2]
  IC50: 178 nM

## CCCc1ccc(CCC(CC(CCCCN2C(=O)c3ccccc3C2=O)C(=O)O)C(=O)NC(CC(C)C)C(=O)Nc2ccccc2)cc1 (stereo not drawn) [Compound 32]
MMP-3
  IC50: 0.036 nM
MMP-1
  IC50: > 10000 nM
MMP-2 [2]
  IC50: 5.7 nM

## NC(=O)C(Cc1ccccc1)NC(=O)C(CS)NC(=O)C(F)(F)F (stereo not drawn) [Compound 33] (Tfa-Cys-Phe-NH2; configuration not given here)
MMP-1
  IC50: 40 nM

## CC(=O)NC(CS)C(=O)NC(Cc1ccccc1)C(N)=O (stereo not drawn) [Compound 34] (Ac-Cys-Phe-NH2; configuration not given here)
MMP-1
  IC50: > 100000 nM
  inhibition of MMP-1 (in words): did not inhibit

## NC(=O)C(Cc1ccccc1)NC(=O)C(CS)NC(=O)CCc1ccccc1 (stereo not drawn) [Compound 35] (Hydrocinnamoyl-Cys-Phe-NH2; configuration not given here)
MMP-1
  IC50: 3500 nM
MMP-8
  IC50: 38 nM

## Cc1ccc(CCCC(CP(=O)(O)O)C(=O)NC(CC2CCCCC2)C(=O)NCCc2ccccc2)cc1 (stereo not drawn) [Compound 37]
MMP-3
  IC50: 277 nM
MMP-1
  IC50: 17000 nM
MMP-2 [2]
  IC50: 2.5 nM

## COc1ccc(S(=O)(=O)N(Cc2cccnc2)[C@@H](C(=O)NO)C(C)C)cc1 [Compound 40]
stromelysin
  proteoglycan break down: blocks proteoglycan break down
[3]
  activity in the guinea pig model of osteoarthritis (in words): effective

## O=C(CC(CCc1ccccc1)C(=O)O)c1ccc(-c2ccc(OCc3ccccc3)cc2)cc1 (stereo not drawn) [Compound 43]
MMP-3
  IC50: 17 nM
MMP-9
  IC50: 3200 nM
[3]
  inhibiting femoral lesions: 37.8%
  activity in the guinea pig model of osteoarthritis (in words): active
MMP-2 [2]
  IC50: 14 nM

## O=C(CC(CCN1C(=O)c2ccccc2C1=O)C(=O)O)c1ccc(-c2ccc(OCc3ccccc3)cc2)cc1 (stereo not drawn) [Compound 44]
MMP-3
  IC50: 5.7 nM
[4]
  antimetastatic effect, tail vein metastasis model: antimetastatic
[5]
  antimetastatic effect, spontaneous metastasis model: antimetastatic
MMP-9
  IC50: 1.5 nM
[3]
  inhibiting femoral lesions: 53%
  activity in the guinea pig model of osteoarthritis (in words): active
MMP-2 [2]
  IC50: 0.91 nM

## CO[C@H]1[C@H](O[C@@H]2c3c(cc4c(c3O)C(=O)c3c(O)cccc3C4=O)C(=O)[C@@](C)(O)[C@H]2OC)O[C@@H](C)[C@H](O)[C@H]1O [Compound 46, aranciamycin]
MMPs
  inhibition of MMPs (in words): weak inhibitors

## COC(=O)c1cccc2c1C(=O)c1c(C(=O)OC)cc(C(=O)O)cc1C2=O [Compound 48]
MMP-1
  inhibition of MMP-1 (in words): MMP-1 inhibitors

## CC(=O)NC1C(O)CC(Cc2cc3ccc(=O)oc3cc2OC(=O)N(C)C)C(O)C1O (stereo not drawn) [Compound 49]
MMP-1
  inhibition of MMP-1 (in words): weak inhibitors

## CNC(=O)[C@@H](NC(=O)[C@@H](CC(=O)NO)CC(C)C)C(C)(C)C [RO 31-9790]
[6]
  protection in adoptively transferred EAE: protect
